According to patent publication US11230538B2, “Herbicides” (SYNGENTA PARTICIPATIONS AG, priority 2016, dated 2022):

Assays:
Format in all cases: in vivo
[1] = test system: Alopecurus myosuroides (ALOMY); test: B1 Pre-emergence herbicidal activity; parameters: key: 5=total damage to plant; 0=no damage to plant; settings: pre-emergence application, rate 1000 g/ha, evaluated after 13 days
Procedure, shortened: (§1)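 Pre-emergence spray one day after sowing; vehicle acetone/water 50:50 + 0.5% Tween 20. Glasshouse 24/16 °C, 14 h light, 65% RH, watered twice daily. Visual damage score at day 13, 0–5 scale (5 = total damage).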

Avena fatua (AVEFA) [2] = test: B1 Pre-emergence herbicidal activity; parameters: key: 5=total damage to plant; 0=no damage to plant; settings: pre-emergence application, rate 1000 g/ha, evaluated after 13 days
Procedure, shortened: as §1

[3] = test system: Triticum aestivium (TRZAW); test: B1 Pre-emergence herbicidal activity; parameters: key: 5=total damage to plant; 0=no damage to plant; settings: pre-emergence application, rate 1000 g/ha, evaluated after 13 days
Procedure, shortened: as §1

[4] = test system: Echinochloa crus-galli (ECHCG); test: B1 Pre-emergence herbicidal activity; parameters: key to Pre-emergence herbicidal activity, ECHCG (damage score 0-5): 5=total damage to plant; 0=no damage to plant; settings: pre-emergence application, rate 1000 g/ha, evaluated after 13 days
Procedure, shortened: as §1

Lolium perenne (LOLPE) [5] = test: B1 Pre-emergence herbicidal activity; parameters: key to Pre-emergence herbicidal activity, LOLPE (damage score 0-5): 5=total damage to plant; 0=no damage to plant; settings: pre-emergence application, rate 1000 g/ha, evaluated after 13 days
Procedure, shortened: as §1

Setaria fabenr (SETFA) = test: B1 Pre-emergence herbicidal activity; parameters: key to Pre-emergence herbicidal activity, SETFA (damage score 0-5): 5=total damage to plant; 0=no damage to plant; settings: pre-emergence application, rate 1000 g/ha, evaluated after 13 days
Procedure, shortened: as §1

Avena fatua (AVEFA) [6] = test: B2 Post-emergence herbicidal activity; settings: post-emergence application, rate 1000 g/ha, evaluated after 13 days
Procedure, shortened: (§2)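 Post-emergence spray, 8-day-old potted seedlings; formulation acetone:water 50:50 + 0.5% Tween 20. Glasshouse 24/16 °C, 14 h light, 65% RH. Scored day 13, 0 (no damage) to 5 (total damage).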

[7] = test system: Echinochloa crus-galli (ECHCG); test: B2 Post-emergence herbicidal activity; parameters: key to Post-emergence herbicidal activity, ECHCG (damage score 0-5): 5=total damage to plant; 0=no damage to plant; settings: post-emergence application, rate 1000 g/ha, evaluated after 13 days
Procedure, shortened: as §2

Lolium perenne (LOLPE) [8] = test: B2 Post-emergence herbicidal activity; parameters: key to Post-emergence herbicidal activity, LOLPE (damage score 0-5): 5=total damage to plant; 0=no damage to plant; settings: post-emergence application, rate 1000 g/ha, evaluated after 13 days
Procedure, shortened: as §2

[9] = test system: Alopecurus myosuroides (ALOMY); test: B2 Post-emergence herbicidal activity; parameters: key: 5=total damage to plant; 0=no damage to plant; settings: post-emergence application, rate 1000 g/ha, evaluated after 13 days
Procedure, shortened: as §2

Setaria fabenri (SETFA) = test: B2 Post-emergence herbicidal activity; parameters: key: 5=total damage to plant; 0=no damage to plant; settings: post-emergence application, rate 1000 g/ha, evaluated after 13 days
Procedure, shortened: as §2

[10] = test system: Triticum aestivium (TRZAW); test: B2 Post-emergence herbicidal activity; parameters: key: 5=total damage to plant; 0=no damage to plant; settings: post-emergence application, rate 1000 g/ha, evaluated after 13 days
Procedure, shortened: as §2

SMILES | Pre-emergence herbicidal activity, ALOMY (damage score 0-5) [1] | Pre-emergence herbicidal activity, AVEFA (damage score 0-5) (Avena fatua (AVEFA) [2]) | Pre-emergence herbicidal activity, TRAZW (damage score 0-5) [3] | Pre-emergence herbicidal activity, ECHCG (damage score 0-5) [4] | Pre-emergence herbicidal activity, LOLPE (damage score 0-5) (Lolium perenne (LOLPE) [5]) | Pre-emergence herbicidal activity, SETFA (damage score 0-5) (Setaria fabenr (SETFA)) | Post-emergence herbicidal activity, AVEFA (damage score 0-5) (Avena fatua (AVEFA) [6]) | Post-emergence herbicidal activity, ECHCG (damage score 0-5) [7] | Post-emergence herbicidal activity, LOLPE (damage score 0-5) (Lolium perenne (LOLPE) [8]) | Post-emergence herbicidal activity, ALOMY (damage score 0-5) [9] | Post-emergence herbicidal activity, SETFA (damage score 0-5) (Setaria fabenri (SETFA)) | Post-emergence herbicidal activity, TRAZW (damage score 0-5) [10]
O=C(Nc1ccc(-c2cncc(F)c2)nc1C(F)(F)F)C1CCCC1 [Compound C111] | 1 | 2 | 0 | 4 | 1 | 5 | 4 | 5 | 2 | 1 | 5 | 0
CC(C)C(=O)Nc1ccc(-c2cncnc2)nc1C(F)(F)F [Compound C8] | 0 | 3 | 0 | 4 | 2 | 5 | 4 | 4 | 2 | 3 | 5 | 2
CC(C)C(=O)N(C)c1ccc(-c2cncc(F)c2)nc1C(F)(F)F [Compound C4, N-[6-(5-fluoro-3-pyridyl)-2-(trifluoromethyl)-3-pyridyl]-N,2-dimethyl-propanamide] | 0 | 1 | 0 | 4 | 5 | 1 | 4 | 4 | 5 | 1 | 3 | 1
CCC(=O)Nc1ccc(-c2cncc(F)c2)nc1C(F)(F)F [Compound C13] | 1 | 2 | 0 | 4 | 3 | 5 | 4 | 5 | 4 | 1 | 5 | 0
O=C(Nc1ccc(-c2cncc(F)c2)nc1C(F)(F)F)C1CC1 [Compound C59] | 0 | 3 | 0 | 4 | 1 | 5 | 3 | 5 | 3 | 1 | 4 | 0
O=C(COc1ccccc1)Nc1ccc(-c2cncc(F)c2)nc1C(F)(F)F [Compound C28] | 0 | 3 | 0 | 4 | 1 | 4 | 4 | 5 | 3 | 0 | 5 | 0
O=C1CCC(=O)N1c1ccc(-c2cncnc2)nc1C(F)(F)F [Compound C110] | 0 | 3 | 0 | 4 | 1 | 4 | 3 | 5 | 2 | 0 | 5 | 1
CCC(=O)N(CC#N)c1ccc(-c2cncc(F)c2)nc1C(F)(F)F [Compound C57] | 0 | 1 | 0 | 3 | 0 | 4 | 2 | 4 | 2 | 0 | 4 | 0
O=C(O)CCC(=O)Nc1ccc(-c2cncc(F)c2)nc1C(F)(F)F [Compound C113, 4-[[6-(5-fluoro-3-pyridyl)-2-(trifluoromethyl)-3-pyridyl]amino]-4-oxo-butanoic acid] | 0 | 2 | 0 | 5 | 1 | 5 | 4 | 5 | 3 | 1 | 5 | 3
CCC(=O)N(Cc1ccncc1)c1ccc(-c2cncc(F)c2)nc1C(F)(F)F [Compound C70] | 0 | 1 | 0 | 2 | 1 | 2 | 2 | 2 | 1 | 0 | 3 | 0
